Columns and labels:
Hedgehog pathway = conditions: murine models; cited from earlier work
Hedgehog signaling = conditions: 50 mg/kg/d i.p.
Excerpt: Sixty nude mice undergo intrasplenic injection of NE tumor cells as described above. […] Treatment continues for 8 weeks.
2) Interval assessment of tumor burden. All animals undergo microCT scanning every week for 8 weeks as described above. Blood is sampled weekly for measurement of serotonin or calcitonin levels.
3) Measurement of Hedgehog signaling inhibition. […] The liver lesions from animals sacrificed at 2 weeks intervals (n=3 per group) are microdissected from normal liver and total RNA extracted. Tumors in cycloamine treated mice are analyzed for downregulation of Gli1 expression by real-time PCR when compared to control animals.

[1] = system: H727 human lung carcinoid cancer cells; experiment: Western blot analysis of pulmonary carcinoid cells; format: cell-based; conditions: SBHA, 48 hours
Human MTC TT cells [2] = experiment: MTT cell viability assay, medullary thyroid cancer cells; format: cell-based; conditions: concentrations up to 25 μM
Method: (§1) Human MTC TT cells were treated with SBHA in concentrations up to 25 μM and analyzed by Western blotting for evidence of Notch1 pathway activation and changes in neuroendocrine markers. MTT assay was used to measure cell viability. Finally mechanism of growth inhibition was analyzed by Western blotting.

[3] = system: BON human GI carcinoid cancer cells; experiment: Western blot analysis of GI carcinoid cells; format: cell-based; conditions: 48 hours
Method: Cell Culture BON human GI carcinoid cancer cells, kindly provided by Drs. B. Mark Evers and Courtney M. Townsend, Jr.
Total protein concentrations were quantified with a bicinchoninic acid assay kit (Pierce Biotechnology, Rockford, Ill., USA). Denatured cellular extracts were resolved by SDS-PAGE, transferred to nitrocellulose membranes (Schleicher and Schuell, Keene, N.H., USA), blocked in milk, and incubated with appropriate antibodies. The antibody dilutions were: 1:1,000 for Notch1 (Santa Cruz Biotechnology, Santa Cruz, Calif., USA), mammalian achaete-scute homolog 1 (ASCL1; BD Biosciences, San Diego, Calif., USA), chromogranin A (Zymed Laboratories, San Francisco, Calif., USA), and cyclin D1 (Cell Signaling Technology, Danvers, Mass., USA), 1:2,000 for p21 (Cell Signaling Technology) and p27 (Santa Cruz Biotechnology), and 1:10,000 for glyceraldehyde-3-phosphate dehydrogenase (G3PDH; Trevigen, Gaithersburg, Md., USA). Horseradish peroxidase conjugated goat anti-rabbit or goat anti-mouse secondary antibodies (Pierce Biotechnology) were used depending on the source of the primary antibody. For visualization of the protein signal, Immunstar (Bio-Rad Laboratories, Hercules, Calif., USA) or SuperSignal West Femto (Pierce Biotechnology) kits were used per the manufacturer's instructions.
Cell Culture BON human gastrointestinal (GI) carcinoid tumor cells, kindly provided by Drs. B. Mark Evers and Courtney M. Townsend, Jr.
Total protein concentrations were quantified with a bicinchoninic acid assay kit (Pierce Biotechnology, Rockford, Ill.). Denatured cellular extracts were resolved by SDS-PAGE, transferred onto nitrocellulose membranes (Schleicher and Schuell, Keene, N H), blocked in milk, and incubated with appropriate antibodies. The antibody dilutions were: 1:1,000 for Notch1 (Santa Cruz Biotechnology, Santa Cruz, Calif.), mammalian achaete-scute homolog 1 (ASCL1; BD Biosciences, San Diego, Calif.), chromogranin A (Zymed Laboratories, San Francisco, Calif.), and cyclin D1 (Cell Signaling Technology, Danvers, Mass.), 1:2,000 for p21 (Cell Signaling Technology) and p27 (Santa Cruz Biotechnology), and 1:10,000 for glyceraldehyde-3-phosphate dehydrogenase (G3PDH; Trevigen, Gaithersburg, Md.). Horseradish peroxidase conjugated goat anti-rabbit or goat anti-mouse secondary antibodies (Pierce Biotechnology) were used depending on the source of the primary antibody. For visualization of the protein signal, Immunstar (Bio-Rad Laboratories, Hercules, Calif.) or SuperSignal West Femto (Pierce Biotechnology) kits were used per the manufacturer's instructions.

[4] = system: BON human GI carcinoid cancer cells; experiment: MTT cell proliferation assay, GI carcinoid cells; format: cell-based
Excerpt: (§2) Cell Culture BON human GI carcinoid cancer cells, kindly provided by Drs. B. Mark Evers and Courtney M. Townsend, Jr. (University of Texas Medical Branch, Galveston, Tex., USA), and H727 human lung carcinoid cancer cells (American Type Tissue Collection, Manassas, Va., USA) were maintained as previously described (Sippel, R S et al., Raf-1 Activation Suppresses neuroendocrine marker and hormone levels in human gastrointestinal carcinoid cells. Am J Physiol Gastrointest Liver Physiol. 2003 August; 285(2):G245-54, Van Gompel J J et al., ZM336372, A Raf-1 Activator, Suppresses Growth and Neuroendocrine Hormone Levels in Carcinoid Tumor Cells. Mol Cancer Ther. 2005 June; 4(6):910-7)
(§3) Cell Proliferation Assay Carcinoid cancer cell proliferation was measured by the MTT (thiazolyl blue tetrazolium bromide; Sigma-Aldrich, St. Louis, Mo., USA) rapid calorimetric assay as previously described (Van Gompel J J et al., ZM336372, A Raf-1 Activator, Suppresses Growth and Neuroendocrine Hormone Levels in Carcinoid Tumor Cells. Mol Cancer Ther. 2005 June; 4(6):910-7). Briefly, cells were seeded in quadruplicate on 24-well plates and incubated for 24 hours to allow cell attachment. The cells were then treated with SBHA (Sigma-Aldrich) in concentrations of 0 to 50 μM and incubated for up to 6 days. The MTT assay was performed by replacing the standard medium with 250 μL of serum-free medium containing MTT (0.5 mg/mL) and incubated at 37° C. for 3 hours. After incubation, 750 μL of dimethyl sulfoxide (Sigma-Aldrich) was added to each well and mixed thoroughly. The plates were then measured at 540 nm using a spectrophotometer (μQuant; Bio-Tek Instruments, Winooski, Vt., USA).
Cell Culture BON human gastrointestinal (GI) carcinoid tumor cells, kindly provided by Drs. B. Mark Evers and Courtney M. Townsend, Jr. […]
(§4) Cell Proliferation Assay Carcinoid tumor cell proliferation was measured by the MTT (methylthiazolyldiphenyl-tetrazolium bromide; Sigma-Aldrich, St. Louis, Mo.) rapid colorimetric assay as previously described (Van Gompel J J et al., ZM336372, A Raf-1 Activator, Suppresses Growth and Neuroendocrine Hormone Levels in Carcinoid Tumor Cells. Mol Cancer Ther 2005; 4:910-917). […] The plates were then measured at 540 nm using a spectrophotometer (μQuant; Bio-Tek Instruments, Winooski, Vt.).

[5] = system: H727 human lung carcinoid cancer cells; experiment: MTT cell proliferation assay, pulmonary carcinoid cells; format: cell-based; conditions: up to 6 days
Excerpt: as §2
as §3, with “After incubation, 750 μL of dimethyl sulfoxide (Sigma-Aldrich) was added to each well and mixed thoroughly.” left out, “USA). […]” for “USA).”
as §4

Human MTC TT cells [6] = experiment: Western blotting of medullary thyroid cancer cells; format: cell-based; conditions: concentrations up to 25 μM
Method: as §1

| Structure (SMILES) | Hedgehog signaling (Hedgehog pathway) | tumors dependent on Hedgehog signaling (Hedgehog pathway) | Hedgehog signaling within the NE tumor cells (Hedgehog signaling) | levels of cyclin D1 [1] | levels of cyclin-dependent kinase inhibitors p21 and p27 [1] | cell viability (Human MTC TT cells [2]) | concentration resulting in induction of full-length Notch1 and Notch1 intracellular domain (NICD) ([3]; concentrations as low as) | levels of cyclin D1 ([3]; SBHA) | levels of cyclin-dependent kinase inhibitors p21 and p27 ([3]; SBHA) | cell proliferation ([4]; SBHA 0 to 50 μM, up to 6 days) | concentration giving significant growth inhibition ([4]; after 4 days of exposure) | cell growth ([5]; SBHA 0 to 50 μM) | concentrations that produced growth inhibition [5] | ASCL1 (Human MTC TT cells [6]) | active form of Notch1 (Human MTC TT cells [6]) | chromogranin A (Human MTC TT cells [6]) | cleaved poly ADP-ribose polymerase (PARP) and caspase-3 (Human MTC TT cells [6]) |
| --- | --- | --- | --- | --- | --- | --- | --- | --- | --- | --- | --- | --- | --- | --- | --- | --- | --- |
| CC1=C2C[C@H]3[C@@H](CC=C4C[C@@H](O)CC[C@@]43C)[C@@H]2CC[C@]12O[C@@H]1C[C@H](C)CN[C@H]1[C@H]2C [Cyclopamine] | completely blocked | caused regression | confirmed to inhibit |  |  |  |  |  |  |  |  |  |  |  |  |  |  |
| O=C(CCCCCCC(=O)NO)NO [SBHA, suberic bishydroxamic acid] |  |  |  | decreased levels | increased levels | dose-dependant decrease | 5 µM | decreased levels | increased levels | profound dose-dependent inhibition | 5 µM | dose-dependent growth suppression | 20 to 50 µM | concomitant decrease | dose-dependent induction | decrease | increase in protein levels |
